Tests used:
Type in all cases: biochemical
CDK9/T1 = CDK9/T1 (Homo sapiens, UniProt P50750); assay: ADP Glo Kinase assay CDK9/T1; conditions: CDK9T1; read-out: CDK inhibition, Ki (μM) CDK9T1
Description: (§1) Eurofins Pharma Discovery or Reaction Biology Corporation Kinase Profiler services were used to measure inhibition of CDKs and other kinases by radiometric assay. Inhibition of CDK4/D1, CDK6/D3 and CDK9/T1 were also determined in-house using ADP Glo Kinase assays (Promega Corporation, Madison, USA). Briefly, the kinase reaction for CDK4/D1 and CDK6/D3 was performed with kinase reaction buffer ([…] Tris base pH 7.5, 20 mM MgCl2, 0.4 mM DTT), 0.1 mg/ml BSA and RB-CTF substrate (retinoblastoma protein 1 C-terminal fraction). For CDK9/CyclinT1, the kinase reaction was performed with standard assay buffer and Kinase Dilution Buffer and RBER-IRStide substrate. Serial dilutions of 1:3 were prepared for test compounds for 10 concentrations (from 10 μM to 0.5 nM). The kinase reactions were started by addition of ATP, incubated for 40 min at 37° C. and then stopped by adding 10 μL of ADP Glo reagent. After incubation at room temperature in the dark for 40 min, 20 μL of kinase detection reagent was added per well and incubated for 40 min. Luminescence was measured using an EnVision Multilabel plate reader (PerkinElmer, Buckinghamshire, UK). Positive and negative controls were performed in the presence and absence of CDK kinases, respectively. Half-maximal inhibition (IC50) values were calculated using a 4-parameter logistic non-linear regression model with Graphpad prism (Version 6.0). Apparent inhibition constants (Ki) values were calculated from Km (ATP) and IC50 values for the respective kinases.

CDKs and other kinases [1] = molecular target: T1, CDKs and other kinases (Homo sapiens, UniProt P50613); assay: Radiometric kinase assay (Eurofins Pharma Discovery or Reaction Biology Corporation Kinase Profiler); conditions: CDK7H; for remaining activity at 10 µM: compound at 10 μM, read-out: residual activity (%) at 10 μM CDK7H; for Ki: read-out: CDK inhibition, Ki (μM) CDK7H
T1 construct: other: CDK7H; residual activity (%) at 10 μM CDK7H; compound at 10 μM
Description: as §1

CDKs and other kinases [2] = molecular target: T2, CDKs and other kinases (Homo sapiens, UniProt P24941); assay: as above; conditions: CDK2A; for remaining activity at 10 µM: compound at 10 μM, read-out: residual activity (%) at 10 μM CDK2A; for Ki: read-out: CDK inhibition, Ki (μM) CDK2A
T2 construct: other: CDK2A; residual activity (%) at 10 μM CDK2A; compound at 10 μM
Description: as §1

CDK4/D1 = CDK4/D1 (Homo sapiens, UniProt P11802); assay: ADP Glo Kinase assay CDK4/D1; conditions: CDK4D1; compound at 10 μM; read-out: residual activity (%) at 10 μM CDK4D1
Description: as §1

CDKs and other kinases [3] = molecular target: T3, CDKs and other kinases (Homo sapiens, UniProt P06493); assay: Radiometric kinase assay (Eurofins Pharma Discovery or Reaction Biology Corporation Kinase Profiler); conditions: CDK1B; for remaining activity at 10 µM: compound at 10 μM, read-out: residual activity (%) at 10 μM CDK1B; for Ki: read-out: CDK inhibition, Ki (μM) CDK1B
T3 construct: other: CDK1B; residual activity (%) at 10 μM CDK1B; compound at 10 μM
Description: as §1

Sequence of CDK4/D1 (P11802 whole entry): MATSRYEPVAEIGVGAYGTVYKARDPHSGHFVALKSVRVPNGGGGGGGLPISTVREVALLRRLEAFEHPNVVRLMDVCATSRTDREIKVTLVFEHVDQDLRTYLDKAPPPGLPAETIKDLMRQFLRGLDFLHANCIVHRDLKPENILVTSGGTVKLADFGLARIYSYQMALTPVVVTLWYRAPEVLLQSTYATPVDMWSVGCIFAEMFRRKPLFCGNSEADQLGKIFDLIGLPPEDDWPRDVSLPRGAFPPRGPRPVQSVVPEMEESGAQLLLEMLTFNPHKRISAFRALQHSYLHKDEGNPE
Sequence of CDK4/D1 (P24385 whole entry partner): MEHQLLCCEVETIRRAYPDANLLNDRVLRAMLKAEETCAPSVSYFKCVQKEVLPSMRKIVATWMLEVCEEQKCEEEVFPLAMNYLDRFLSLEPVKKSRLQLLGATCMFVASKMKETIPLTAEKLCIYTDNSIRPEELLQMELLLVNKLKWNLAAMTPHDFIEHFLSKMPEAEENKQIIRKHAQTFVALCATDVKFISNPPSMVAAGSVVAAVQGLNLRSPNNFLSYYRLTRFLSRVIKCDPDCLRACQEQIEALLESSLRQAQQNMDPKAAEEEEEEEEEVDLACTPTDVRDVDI
Sequence of CDK9/T1 (P50750 whole entry): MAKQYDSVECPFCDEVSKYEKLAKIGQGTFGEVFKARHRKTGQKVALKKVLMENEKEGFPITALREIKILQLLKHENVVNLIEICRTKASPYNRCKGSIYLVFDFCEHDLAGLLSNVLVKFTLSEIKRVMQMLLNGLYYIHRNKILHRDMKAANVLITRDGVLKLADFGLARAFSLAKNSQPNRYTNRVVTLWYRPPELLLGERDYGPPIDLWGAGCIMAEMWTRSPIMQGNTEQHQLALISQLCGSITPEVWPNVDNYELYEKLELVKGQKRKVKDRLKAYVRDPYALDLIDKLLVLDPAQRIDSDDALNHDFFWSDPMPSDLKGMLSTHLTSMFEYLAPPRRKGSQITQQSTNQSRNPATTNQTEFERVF
Sequence of CDK9/T1 (O60563 whole entry partner): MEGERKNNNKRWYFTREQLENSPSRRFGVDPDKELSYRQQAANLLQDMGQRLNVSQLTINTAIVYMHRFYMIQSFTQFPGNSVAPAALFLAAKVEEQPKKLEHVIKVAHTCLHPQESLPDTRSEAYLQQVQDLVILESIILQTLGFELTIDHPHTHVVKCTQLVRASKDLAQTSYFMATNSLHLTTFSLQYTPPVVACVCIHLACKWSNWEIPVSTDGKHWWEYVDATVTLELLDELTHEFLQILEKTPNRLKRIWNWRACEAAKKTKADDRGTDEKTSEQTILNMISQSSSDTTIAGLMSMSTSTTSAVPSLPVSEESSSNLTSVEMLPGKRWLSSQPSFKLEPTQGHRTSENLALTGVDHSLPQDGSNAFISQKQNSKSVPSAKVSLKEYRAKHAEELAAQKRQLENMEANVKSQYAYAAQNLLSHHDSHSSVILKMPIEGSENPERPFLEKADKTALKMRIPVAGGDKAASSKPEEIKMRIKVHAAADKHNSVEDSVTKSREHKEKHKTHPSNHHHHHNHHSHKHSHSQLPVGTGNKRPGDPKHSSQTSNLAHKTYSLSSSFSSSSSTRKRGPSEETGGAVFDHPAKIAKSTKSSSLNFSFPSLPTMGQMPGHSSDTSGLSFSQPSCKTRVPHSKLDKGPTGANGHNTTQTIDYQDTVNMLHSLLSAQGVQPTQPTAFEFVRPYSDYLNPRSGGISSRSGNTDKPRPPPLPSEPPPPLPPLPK
T1 sequence (P50613 whole entry): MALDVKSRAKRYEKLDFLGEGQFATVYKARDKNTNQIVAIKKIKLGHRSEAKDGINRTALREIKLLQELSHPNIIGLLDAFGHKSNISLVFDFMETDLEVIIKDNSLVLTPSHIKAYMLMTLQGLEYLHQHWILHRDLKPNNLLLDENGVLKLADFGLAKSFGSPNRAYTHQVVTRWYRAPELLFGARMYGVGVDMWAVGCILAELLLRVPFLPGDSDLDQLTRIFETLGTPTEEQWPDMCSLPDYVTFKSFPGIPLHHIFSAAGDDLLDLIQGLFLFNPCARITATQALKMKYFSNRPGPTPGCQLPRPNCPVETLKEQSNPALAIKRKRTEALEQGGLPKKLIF
T3 sequence (P06493 whole entry): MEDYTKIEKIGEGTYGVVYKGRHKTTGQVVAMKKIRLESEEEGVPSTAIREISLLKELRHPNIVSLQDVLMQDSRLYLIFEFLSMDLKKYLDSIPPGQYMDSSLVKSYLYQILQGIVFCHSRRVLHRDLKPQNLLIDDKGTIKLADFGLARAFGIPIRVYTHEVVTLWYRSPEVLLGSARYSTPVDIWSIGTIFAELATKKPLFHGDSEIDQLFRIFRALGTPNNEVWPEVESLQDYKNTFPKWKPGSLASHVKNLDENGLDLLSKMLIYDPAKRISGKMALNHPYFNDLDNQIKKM

Row | Ki (CDK9/T1) | remaining activity at 10 µM (CDKs and other kinases [1]) | remaining activity at 10 µM (CDKs and other kinases [2]) | remaining activity at 10 µM (CDK4/D1) | remaining activity at 10 µM (CDKs and other kinases [3]) | Ki (CDKs and other kinases [1]) | Ki (CDKs and other kinases [3]) | Ki (CDKs and other kinases [2]) | SMILES
1 | > 5 µM | 65% | 35% | 47% | – | – | – | – | CS(=O)(=O)N1CCC(Nc2ncc(F)c(-c3cnc4cc(-c5ccccc5)ccn34)n2)CC1 [Compound 171, 5-Fluoro-N-(1-(methylsulfonyl)piperidin-4-yl)-4-(7-phenylimidazo[1,2-a]pyridin-3-yl)pyrimidin-2-amine]
2 | 0.014 µM | – | 7% | 0% | 3% | 0.099 µM | – | – | CN1CCC(N[C@H]2CC[C@H](Nc3ncc(F)c(-c4cnc5ccc(-c6ccccc6)cn45)n3)CC2)CC1 [Compound 160, (1r,4r)-N^1-(5-Fluoro-4-(6-phenylimidazo[1,2-a]pyridin-3-yl)pyrimidin-2-yl)-N^4-(1-methylpiperidin-4-yl) cyclohexane-1,4-diamine]
3 | 1.88 µM | 35% | 31% | 81% | – | – | – | – | CNC(=O)N[C@H]1CC[C@H](Nc2ncc(C)c(-c3cnc4ccc(-c5ccccc5)cn34)n2)CC1 [Compound 169, 1-Methyl-3-((1r,4r)-4-((5-methyl-4-(6-phenylimidazo [1,2-a]pyridin-3-yl)pyrimidin-2-yl)amino)cyclohexyl) urea]
4 | 0.011 µM | 30% | – | 15% | – | – | 0.532 µM | 0.064 µM | Cc1cnc(N[C@H]2CC[C@H](N3CCC3)CC2)nc1-c1cnc2ccc(Nc3cncnc3)cn12 [Compound 141, 3-(2-(((1r,4r)-4-(Azetidin-1-yl)cyclohexyl)amino)-5-methylpyrimidin-4-yl)-N-(pyrimidin-5-yl)imidazo [1,2-a]pyridin-6-amine]
5 | 0.011 µM | – | – | 31% | – | 0.89 µM | 1.53 µM | 0.3 µM | Cc1cnc(N[C@H]2CC[C@H](N)CC2)nc1-c1cnc2ccc(Nc3ccc(F)nc3)cn12 [Compound 123, (1r,4r)-N^1-(4-(6-((6-Fluoropyridin-3-yl)amino)imidazo [1,2-a]pyridin-3-yl)-5-methylpyrimidin-2-yl)cyclohexane-1,4-diamine]
6 | 0.12 µM | 18% | 0% | 32% | 42% | – | – | – | COCCN[C@H]1CC[C@H](Nc2ncc(C)c(-c3cnc4ccc(-c5ccccc5)cn34)n2)CC1 [Compound 129, (1r,4r)-N^1-(2-Methoxyethyl)-N^4-(5-methyl-4-(6-phenylimidazo[1,2-a]pyridin-3-yl)pyrimidin-2-yl) cyclohexane-1,4-diamine]
7 | 0.181 µM | 55% | 11% | 22% | – | – | – | – | Cc1cnc(NC2CCC(N3CCNC(=O)C3)CC2)nc1-c1cnc2ccc(Nc3cncnc3)cn12 (centres unmarked) [Compound 168, 4-(4-((5-Methyl-4-(6-(pyrimidin-5-ylamino)imidazo [1,2-a]pyridin-3-yl)pyrimidin-2-yl)amino)cyclohexyl) piperazin-2-one]
8 | 0.12 µM | 28% | 22% | 11% | 43% | – | – | – | Cc1cnc(N[C@H]2CC[C@H](N)CC2)nc1-c1cnc2ccc(Nc3ccncc3)cn12 [Compound 134, (1r,4r)-N^1-(5-Methyl-4-(6-(pyridin-4-ylamino)imidazo [1,2-a]pyridin-3-yl)pyrimidin-2-yl)cyclohexane-1,4-diamine]
9 | 0.044 µM | 15% | 4% | 14% | 31% | – | – | – | Cc1cnc(N[C@H]2CC[C@H](N3CCC3)CC2)nc1-c1cnc2ccc(Nc3cncc(F)c3)cn12 [Compound 139, 3-(2-(((1r,4r)-4-(Azetidin-1-yl)cyclohexyl)amino)-5-methylpyrimidin-4-yl)-N-(5-fluoropyridin-3-yl)imidazo [1,2-a]pyridin-6-amine]
10 | 0.061 µM | 20% | 11% | 43% | 31% | – | – | – | Cc1cnc(N[C@H]2CC[C@H](N)CC2)nc1-c1cnc2cc(F)c(-c3ccccc3)cn12 [Compound 159, (1r,4r)-N^1-(4-(7-Fluoro-6-phenylimidazo[1,2-a]pyridin-3-yl)-5-methylpyrimidin-2-yl)cyclohexane-1,4-diamine]
11 | 0.93 µM | 24% | 51% | 61% | – | – | – | – | O[C@H]1CC[C@H](Nc2ncc(Cl)c(-c3cnc4ccc(-c5ccc(F)cc5)cn34)n2)CC1 [Compound 165, (1r,4r)-4-((5-Chloro-4-(6-(4-fluorophenyl)imidazo[1,2-a]pyridin-3-yl)pyrimidin-2-yl)amino)cyclohexan-1-ol]
12 | 0.49 µM | 49% | 4% | 66% | – | – | – | – | COc1ccc(-c2ccc3ncc(-c4nc(N[C@H]5CC[C@H](O)CC5)ncc4Cl)n3c2)cn1 [Compound 167, (1r,4r)-4-((5-Chloro-4-(6-(6-methoxypyridin-3-yl)imidazo[1,2-a]pyridin-3-yl)pyrimidin-2-yl)amino) cyclohexan-1-ol]
13 | 1.28 µM | 33% | 8% | 54% | – | – | – | – | O[C@H]1CC[C@H](Nc2ncc(Cl)c(-c3cnc4ccc(-c5cccnc5)cn34)n2)CC1 [Compound 166, (1r,4r)-4-((5-Chloro-4-(6-(pyridin-3-yl)imidazo[1,2-a]pyridin-3-yl)pyrimidin-2-yl)amino)cyclohexan-1-ol]
14 | 4.57 µM | 5% | 0% | 61% | – | – | – | – | CCS(=O)(=O)N1CCC(Nc2ncc(F)c(-c3cnc4ccc(-c5ccccc5)cn34)n2)CC1 [Compound 163, N-(1-(Ethylsulfonyl)piperidin-4-yl)-5-fluoro-4-(6-phenylimidazo[1,2-a]pyridin-3-yl)pyrimidin-2-amine]
15 | > 5 µM | 18% | 7% | 5% | – | – | – | – | Fc1cnc(NC2CCNCC2)nc1-c1cnc2cc(-c3ccccc3)ccn12 [Compound 170, 5-Fluoro-4-(7-phenylimidazo[1,2-a]pyridin-3-yl)-N-(piperidin-4-yl)pyrimidin-2-amine]
16 | 0.005 µM | 21% | 2% | 6% | – | – | – | – | CNC(=O)N[C@H]1CC[C@H](Nc2ncc(C)c(-c3cnc4ccc(Nc5cncnc5)cn34)n2)CC1 [Compound 172, 1-Methyl-3-((1r,4r)-4-((5-methyl-4-(6-(pyrimidin-5-ylamino)imidazo[1,2-a]pyridin-3-yl)pyrimidin-2-yl)amino)cyclohexyl)urea]
17 | 0.14 µM | 10% | 40% | 60% | 22% | – | – | – | CN[C@H]1CC[C@H](Nc2ncc(C)c(-c3cnc4ccc(-c5ccccc5)cn34)n2)CC1 [Compound 133, (1r,4r)-N^1-Methyl-N^4-(5-methyl-4-(6-phenylimidazo[1,2-a]pyridin-3-yl)pyrimidin-2-yl)cyclohexane-1,4-diamine]
18 | 0.402 µM | – | 22% | 41% | – | 0.199 µM | 0.222 µM | – | Fc1cnc(NC2CCN(CC3CC3)CC2)nc1-c1cnc2ccc(-c3ccccc3)cn12 [Compound 145, N-(1-(Cyclopropylmethyl)piperidin-4-yl)-5-fluoro-4-(6-phenylimidazo[1,2-a]pyridin-3-yl)pyrimidin-2-amine]
19 | 0.016 µM | – | 6% | 3% | – | 0.094 µM | 0.074 µM | – | Fc1cnc(N[C@H]2CC[C@H](NC3CCOCC3)CC2)nc1-c1cnc2ccc(-c3ccccc3)cn12 [Compound 161, (1r,4r)-N^1-(5-fluoro-4-(6-phenylimidazo[1,2-a]pyridin-3-yl)pyrimidin-2-yl)-N^4-(tetrahydro-2H-pyran-4-yl) cyclohexane-1,4-diamine]

From US11111245B2, “Derivatives of N-cycloalkyl/heterocycloalkyl-4-(imidazo[1,2-a]pyridine)pyrimidin-2-amine as therapeutic agents” (Aucentra Therapeutics Pty Ltd, priority 2017, dated 2021)
